How the values were obtained:
MV-4-11 cells = experiment: CCK-8 cell viability assay in MV-4-11 cells; type: cell-based; conditions: Homo sapiens, MV4-11, 72 h, 10% FBS, 3 days
Summary of the method: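 IC50 values come from vehicle-normalized CCK-8 absorbance at 450 nm, read 1–4 h after reagent addition. Before that, MV-4-11 cells seeded at 20000 per well were cultured 3 days at 37 °C with a compound dilution series.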

RS4; 11Bcl-2-G101V cells = experiment: CellTiter-Glo (CTG) cell viability assay in RS4;11-Bcl-2-G101V cells; type: cell-based; conditions: 72 h, 10% FBS, 3 days
Summary of the method: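 Luminescent ATP read-out (CellTiter-Glo) after 3-day compound treatment at 37 °C gave viability relative to vehicle, from which IC50 was fitted. Mutant Bcl-2 RS4;11 cells were seeded at 10000 per well and rested 4 h before dosing.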

Bcl-2 WT = Bcl-2 WT (Homo sapiens, UniProt P10415); experiment: Bcl-2 WT inhibition, fluorescence polarization (Flu-BIM tracer) binding assay; conditions: FP; 20 nM Bcl2, 5 nM Flu-BIM, 1 h incubation; read-out: Bcl-2 w.t. (FP)
Bcl-2 WT, sequence (P10415 whole entry): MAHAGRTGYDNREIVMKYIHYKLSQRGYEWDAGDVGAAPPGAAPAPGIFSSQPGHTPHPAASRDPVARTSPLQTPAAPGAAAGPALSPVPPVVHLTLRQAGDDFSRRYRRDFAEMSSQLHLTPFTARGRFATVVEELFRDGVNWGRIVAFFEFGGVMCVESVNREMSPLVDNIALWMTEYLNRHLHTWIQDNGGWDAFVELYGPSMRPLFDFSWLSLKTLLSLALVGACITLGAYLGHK

Row | SMILES | IC50 (MV-4-11 cells) [nM] | IC50 (RS4; 11Bcl-2-G101V cells) [nM] | IC50 (Bcl-2 WT) [nM]
1 | CC1(C)CCC(CN2CCN(c3ccc(C(=O)NS(=O)(=O)c4ccc(NC[C@H]5CC[C@](C)(O)CC5)c([N+](=O)[O-])c4)c(Oc4cnc5[nH]ccc5c4)c3)CC2)=C(c2cc3c(s2)CCN(c2ccc(F)cc2)C3)C1 [Example 16, 2-((1H-pyrrolo[2,3-b]pyridin-5-yl)oxy)-4-(4-((2-(5-(4-fluorophenyl)-4,5,6,7-tetrahydrothieno[3,2-c]pyridin-2-yl)-4,4-dimethylcyclohex-1-en-1-yl)methyl)piperazin-1-yl)-N-((4-((((1r,4r)-4-hydroxy-4-methylcyclohexyl)methyl)amino)-3-nitrophenyl)sulfonyl)benzamide] | 445 | 5630 | 42
2 | CC1(C)CCC(CN2CCN(c3ccc(C(=O)NS(=O)(=O)c4ccc(NC[C@H]5COCCO5)c([N+](=O)[O-])c4)c(Oc4cnc5[nH]ccc5c4)c3)CC2)=C(c2cc(-c3ccc(F)c(F)c3)cs2)C1 [Example 50, (S)—N-((4-(((1,4-dioxan-2-yl)methyl)amino)-3-nitrophenyl)sulfonyl)-2-((1H-pyrrolo[2,3-b]pyridin-5-yl)oxy)-4-(4-((2-(4-(3,4-difluorophenyl)thiophen-2-yl)-4,4-dimethylcyclohex-1-en-1-yl)methyl)piperazin-1-yl)benzamide] | 65 | 1950 | 30.4
3 | CC1(C)CCC(CN2CCN(c3ccc(C(=O)NS(=O)(=O)c4ccc(NC[C@H]5COCCO5)c([N+](=O)[O-])c4)c(Oc4cnc5[nH]ccc5c4)c3)CC2)=C(c2cc(CN3CCC(F)(F)CC3)cs2)C1 [Example 32, (S)—N-((4-(((1,4-dioxan-2-yl)methyl)amino)-3-nitrophenyl)sulfonyl)-2-((1H-pyrrolo[2,3-b]pyridin-5-yl)oxy)-4-(4-((2-(4-((4,4-difluoropiperidin-1-yl)methyl)thiophen-2-yl)-4,4-dimethylcyclohex-1-en-1-yl)methyl)piperazin-1-yl)benzamide] | 80 | 560 | 15.9
4 | CC(CO)c1ccc(-c2csc(C3=C(CN4CCN(c5ccc(C(=O)NS(=O)(=O)c6ccc(NC[C@H]7CC[C@](C)(O)CC7)c([N+](=O)[O-])c6)c(Oc6cnc7[nH]ccc7c6)c5)CC4)CCC(C)(C)C3)c2)c(F)c1 (stereo partly drawn) [Example 72, 2-((1H-pyrrolo[2,3-b]pyridin-5-yl)oxy)-4-(4-((2-(4-(2-fluoro-4-(1-hydroxypropan-2-yl)phenyl)thiophen-2-yl)-4,4-dimethylcyclohex-1-en-1-yl)methyl)piperazin-1-yl)-N-((4-((((1r,4r)-4-hydroxy-4-methylcyclohexyl)methyl)amino)-3-nitrophenyl)sulfonyl)benzamide] | 12 | 440 | 20.5
5 | CC(=O)NC(C)(C)c1cc(F)c(-c2csc(C3=C(CN4CCN(c5ccc(C(=O)NS(=O)(=O)c6ccc(NC[C@H]7CC[C@](C)(O)CC7)c([N+](=O)[O-])c6)c(Oc6cnc7[nH]ccc7c6)c5)CC4)CCC(C)(C)C3)c2)c(F)c1 [Example 80, 2-((1H-pyrrolo[2,3-b]pyridin-5-yl)oxy)-4-(4-((2-(4-(4-(2-acetamidopropan-2-yl)-2,6-difluorophenyl)thiophen-2-yl)-4,4-dimethylcyclohex-1-en-1-yl)methyl)piperazin-1-yl)-N-((4-((((1r,4r)-4-hydroxy-4-methylcyclohexyl)methyl)amino)-3-nitrophenyl)sulfonyl)benzamide] | 111 | 420 | 15.6
6 | C[C@@H]1CN(Cc2csc(C3=C(CN4CCN(c5ccc(C(=O)NS(=O)(=O)c6ccc(NC[C@H]7COCCO7)c([N+](=O)[O-])c6)c(Oc6cnc7[nH]ccc7c6)c5)CC4)CCC(C)(C)C3)c2)C[C@H](C)N1C [Example 29, N-((4-((((S)-1,4-dioxan-2-yl)methyl)amino)-3-nitrophenyl)sulfonyl)-2-((1H-pyrrolo[2,3-b]pyridin-5-yl)oxy)-4-(4-((4,4-dimethyl-2-(4-(((3S,5R)-3,4,5-trimethylpiperazin-1-yl)methyl)thiophen-2-yl)cyclohex-1-en-1-yl)methyl)piperazin-1-yl)benzamide] | 422 | 750 | 26.7
7 | CC1(C)CCC(CN2CCN(c3ccc(C(=O)NS(=O)(=O)c4ccc(NC[C@H]5CC[C@](C)(O)CC5)c([N+](=O)[O-])c4)c(Oc4cnc5[nH]ccc5c4)c3)CC2)=C(c2cc(-c3ccc(C(C)(C)O)cc3)cs2)C1 [Example 59, 2-((1H-pyrrolo[2,3-b]pyridin-5-yl)oxy)-N-((4-((((1r,4r)-4-hydroxy-4-methylcyclohexyl)methyl)amino)-3-nitrophenyl)sulfonyl)-4-(4-((2-(4-(4-(2-hydroxypropan-2-yl)phenyl)thiophen-2-yl)-4,4-dimethylcyclohex-1-en-1-yl)methyl)piperazin-1-yl)benzamide] | 2 | 290 | 29.3
8 | CC1(C)CCC(CN2CCN(c3ccc(C(=O)NS(=O)(=O)c4ccc(NC[C@H]5CC[C@](C)(O)CC5)c([N+](=O)[O-])c4)c(Oc4cnc5[nH]ccc5c4)c3)CC2)=C(c2cc(-c3ccc(F)c(F)c3)cs2)C1 [Example 51, 2-((1H-pyrrolo[2,3-b]pyridin-5-yl)oxy)-4-(4-((2-(4-(3,4-difluorophenyl)thiophen-2-yl)-4,4-dimethylcyclohex-1-en-1-yl)methyl)piperazin-1-yl)-N-((4-((((1r,4r)-4-hydroxy-4-methylcyclohexyl)methyl)amino)-3-nitrophenyl)sulfonyl)benzamide] | 52 | 1140 | 35.5
9 | CC(C)c1sccc1C1=C(CN2CCN(c3ccc(C(=O)NS(=O)(=O)c4ccc(NCC5CCOCC5)c([N+](=O)[O-])c4)c(Oc4cnc5[nH]ccc5c4)c3)CC2)CCC(C)(C)C1 [Example 11, 2-((1H-pyrrolo[2,3-b]pyridin-5-yl)oxy)-4-(4-((2-(2-isopropylthiophen-3-yl)-4,4-dimethylcyclohex-1-en-1-yl)-methyl)piperazin-1-yl)-N-((3-nitro-4-(((tetrahydro-2H-pyran-4-yl)methyl)amino)-phenyl)sulfonyl)benzamide] | 54 | 2360 | 20.9
10 | CC1(C)CCC(CN2CCN(c3ccc(C(=O)NS(=O)(=O)c4ccc(NC[C@H]5CC[C@](C)(O)CC5)c([N+](=O)[O-])c4)c(Oc4cnc5[nH]ccc5c4)c3)CC2)=C(c2cc(-c3cccc(C(C)(C)O)c3)cs2)C1 [Example 70, 2-((1H-pyrrolo[2,3-b]pyridin-5-yl)oxy)-N-((4-((((1r,4r)-4-hydroxy-4-methylcyclohexyl)methyl)amino)-3-nitrophenyl)sulfonyl)-4-(4-((2-(4-(3-(2-hydroxypropan-2-yl)phenyl)thiophen-2-yl)-4,4-dimethylcyclohex-1-en-1-yl)methyl)piperazin-1-yl)benzamide] | 95 | 1460 | 19.8
11 | CC1(C)CCC(CN2CCN(c3ccc(C(=O)NS(=O)(=O)c4ccc(NC[C@H]5CC[C@](C)(O)CC5)c([N+](=O)[O-])c4)c(Oc4cnc5[nH]ccc5c4)c3)CC2)=C(c2cc(-c3ccc(C(F)(F)F)cc3)cs2)C1 [Example 41, 2-((1H-pyrrolo[2,3-b]pyridin-5-yl)oxy)-4-(4-((4,4-dimethyl-2-(4-(4-(trifluoromethyl)phenyl)thiophen-2-yl)cyclohex-1-en-1-yl)methyl)piperazin-1-yl)-N-((4-((((1r,4r)-4-hydroxy-4-methylcyclohexyl)methyl)amino)-3-nitrophenyl)sulfonyl)benzamide] | 50 | 3230 | 44
12 | CC1(C)CCC(CN2CCN(c3ccc(C(=O)NS(=O)(=O)c4ccc(NC[C@H]5CC[C@](C)(O)CC5)c([N+](=O)[O-])c4)c(Oc4cnc5[nH]ccc5c4)c3)CC2)=C(c2cc(-c3cc(C(C)(C)O)ccc3F)cs2)C1 [Example 75, 2-((1H-pyrrolo[2,3-b]pyridin-5-yl)oxy)-4-(4-((2-(4-(2-fluoro-5-(2-hydroxypropan-2-yl)phenyl)thiophen-2-yl)-4,4-dimethylcyclohex-1-en-1-yl)methyl)piperazin-1-yl)-N-((4-((((1r,4r)-4-hydroxy-4-methylcyclohexyl)methyl)amino)-3-nitrophenyl)sulfonyl)benzamide] | 118 | 1580 | 19.2
13 | CC(C)c1csc(C2=C(CN3CCN(c4ccc(C(=O)NS(=O)(=O)c5ccc(NC[C@H]6COCCO6)c([N+](=O)[O-])c5)c(Oc5cnc6[nH]ccc6c5)c4)CC3)CCC(C)(C)C2)c1 [Example 10, (S)—N-((4-(((1,4-dioxan-2-yl)methyl)amino)-3-nitrophenyl)sulfonyl)-2-((1H-pyrrolo[2,3-b]pyridin-5-yl)oxy)-4-(4-((2-(4-isopropylthiophen-2-yl)-4,4-dimethylcyclohex-1-en-1-yl)methyl)piperazin-1-yl)benzamide] | 16 | 1040 | 20.3
14 | Cc1sccc1C1=C(CN2CCN(c3ccc(C(=O)NS(=O)(=O)c4ccc(NCC5CCOCC5)c([N+](=O)[O-])c4)c(Oc4cnc5[nH]ccc5c4)c3)CC2)CCC(C)(C)C1 [Example 1, 2-((1H-pyrrolo[2,3-b]pyridin-5-yl)oxy)-4-(4-((4,4-dimethyl-2-(2-methylthiophen-3-yl)cyclohex-1-en-1-yl)methyl)piperazin-1-yl)-N-((3-nitro-4-(((tetrahydro-2H-pyran-4-yl)methyl)amino)phenyl)sulfonyl)benzamide] | 27 | 1170 | 15.7

Reference: patent publication US12577245B2, “Sulfonyl benzamide derivatives as Bcl-2 inhibitors” (ASCENTAGE PHARMA (SUZHOU) CO., LTD., priority 2021, dated 2026)
